Patent US4162305A, “Antibiotic XK-99 and process for production thereof” (Abbott Laboratories, priority 1977, dated 1979)
Values after ≈ are worked out from the molar mass of the structure shown. Like-named read-outs stand apart in the source and are kept apart here. Numbered stars: 1 amine (or outer) side, 2 acyl side, 3 side chain; on linkers, the order of the positions; unused ones are H or OH. Bridge positions count the residues as written; N and C are the ends. Square brackets hold non-standard residues; d marks the D form. Peptide text beside a SMILES is read from it. I, II: the chains in the order shown. Actinocin(9to1) = Cc1c2oc3c(C)ccc(C(=O)[*:1])c3nc-2c(C(=O)[*:2])c(N)c1=O; NMeV = CN[C@H](C(=O)O)C(C)C; Sar = CNCC(=O)O

What was measured:
Staphylococcus aureus = test: Comparative antibacterial activity (MIC), agar dilution method, measured simultaneously; format: cell-based; conditions: for Antibacterial activity [C], ratio of [A] to [B]: MIC Staphylococcus aureus / MIC Bacillus subtilis; for Antibacterial activity [A] (minimum inhibition concentration, MIC) / MIC: Staphylococcus aureus; for MIC: read-out: Antibacterial activity [A] (minimum inhibition concentration, MIC)
Description: (§1) A comparative study of XK-99 with these antibiotics was conducted according to several procedures.
(§2) ^1 Antibacterial activities (minimum inhibition concentration, MIC,
(§3) γ/ml) of the individual antibiotics measured simultaneously
according to agar dilution method against [A] Staphylococcus aureus and […]

Bacillus subtilis = test: as above; format: cell-based; conditions: for MIC: read-out: Antibacterial activity [B] (minimum inhibition concentration, MIC)
Description: as §1, §2, §3
according to agar dilution method against [A] Staphylococcus aureus and
[B]Bacillus subtilis, and [C] ratio of [A] to
^2 Rf values of the individual antibiotics on paper chromatography, […]

[1] = agar dilution method, measured simultaneously

For `CO[C@H]1/C=C/O[C@@]2(C)Oc3c(C)c(O)c4c(c3C2=O)C(=O)C=C(NC(=O)/C(C)=C\C=C\[C@H](C)[C@H](O)[C@@H](C)[C@@H](O)[C@@H](C)[C@H](OC(C)=O)[C@@H]1C)C4=O` [Rifamycin S], which “Antibacterial activity [C], ratio of [A] to [B]” value (Staphylococcus aureus) is on record?
The value was under 0.05.

And the “Antibacterial activity [A] (minimum inhibition concentration, MIC)” value (Staphylococcus aureus; [1])?
The value was under 0.0045 µg/mL.

And the “Antibacterial activity [B] (minimum inhibition concentration, MIC)” value (Bacillus subtilis; [1])?
The value was 0.09 µg/mL.

How did the “Antibacterial activity [C], ratio of [A] to [B]” value (Staphylococcus aureus) turn out when `COc1cccc2c1C(=O)c1c(O)c3c(c(O)c1C2=O)C[C@@](O)(C(C)=O)C[C@@H]3O[C@H]1C[C@H](N)[C@H](O)[C@H](C)O1` [Daunomycin] was run?
Its value is 4.

What about the MIC (Staphylococcus aureus; [1]) of the same molecule?
The MIC was 2.8 µg/mL (≈ 5.31 µM).

And the MIC (Bacillus subtilis; [1])?
The MIC was 0.7 µg/mL (≈ 1.33 µM).

For `Cc1c2oc3c(C)ccc(C(=O)N[C@@H]4C(=O)N[C@H](C(C)C)C(=O)N5CCC[C@H]5C(=O)N(C)CC(=O)N(C)[C@@H](C(C)C)C(=O)O[C@@H]4C)c3nc-2c(C(=O)N[C@@H]2C(=O)N[C@H](C(C)C)C(=O)N3CCC[C@H]3C(=O)N(C)CC(=O)N(C)[C@@H](C(C)C)C(=O)O[C@@H]2C)c(N)c1=O` [Actinomycin D] (I: T[dV]P[Sar][NMeV] / II: T[dV]P[Sar][NMeV]; ester I:1-I:C, II:1-II:C; linker I:N-II:N via Actinocin(9to1)), which “Antibacterial activity [C], ratio of [A] to [B]” value (Staphylococcus aureus) is on record?
Its value is 4.

What about the MIC (Staphylococcus aureus) of the same molecule?
Its MIC is 0.084 µg/mL (≈ 0.0669 µM).

What about the MIC (Bacillus subtilis) of the same molecule?
The MIC was 0.021 µg/mL (≈ 0.0167 µM).

With `COc1cccc2c1C(=O)c1c(O)c3c(c(O)c1C2=O)C[C@@](O)(C(=O)CO)C[C@@H]3O[C@H]1C[C@H](N)[C@H](O)[C@H](C)O1` [Adriamycin] as the molecule, how does the “Antibacterial activity [C], ratio of [A] to [B]” value (Staphylococcus aureus) read?
Its value is 8.

What about the MIC (Staphylococcus aureus; [1]) of the same molecule?
Its MIC is 5.6 µg/mL (≈ 10.3 µM).

What about the MIC (Bacillus subtilis; [1]) of the same molecule?
Its MIC is 0.7 µg/mL (≈ 1.29 µM).

Which results are given for Acrasinomycin?
Antibacterial activity [C], ratio of [A] to [B] (Staphylococcus aureus): 4; Antibacterial activity [A] (minimum inhibition concentration, MIC) (Staphylococcus aureus; [1]): 0.68 µg/mL; Antibacterial activity [B] (minimum inhibition concentration, MIC) (Bacillus subtilis; [1]): 0.17 µg/mL

Which results are given for Halomicin B?
Antibacterial activity [C], ratio of [A] to [B] (Staphylococcus aureus): < 0.05; Antibacterial activity [A] (minimum inhibition concentration, MIC) (Staphylococcus aureus; [1]): < 0.0045 µg/mL; Antibacterial activity [B] (minimum inhibition concentration, MIC) (Bacillus subtilis; [1]): 0.09 µg/mL
